Assay results as given in the supplement of paper PMC13380429.

Columns and labels:
Settings in all cases: 72 h
[1] = test system: Vero E6; assay: drug sensitivity score (DSS) for viability; higher = more toxic; extreme values may be limits of the assay
[2] = test system: HepG2; assay: as above
[3] = test system: Calu-3; assay: as above
[4] = test system: U2OS; assay: as above
[5] = test system: Caco-2; assay: as above
[6] = test system: Vero E6; assay: relative viability EC50 (midpoint between 100% and the lowest measured viability); higher = less toxic
[7] = test system: HepG2; assay: as above
[8] = test system: Calu-3; assay: as above
[9] = test system: U2OS; assay: as above
[10] = test system: Caco-2; assay: as above
[11] = test system: Vero E6; assay: cell viability relative to DMSO; higher = less toxic
[12] = test system: HepG2; assay: as above
[13] = test system: Calu-3; assay: as above
[14] = test system: U2OS; assay: as above
[15] = test system: Caco-2; assay: as above

SMILES | drug sensitivity score [1] | drug sensitivity score [2] | drug sensitivity score [3] | drug sensitivity score [4] | drug sensitivity score [5] | relative viability EC50 [6] [µM] | relative viability EC50 [7] [µM] | relative viability EC50 [8] [µM] | relative viability EC50 [9] [µM] | relative viability EC50 [10] [µM] | cell viability ([11]; 1 nM) [%] | cell viability ([11]; 10 nM) [%] | cell viability ([11]; 100 nM) [%] | cell viability ([11]; 1000 nM) [%] | cell viability ([11]; 10000 nM) [%] | cell viability ([12]; 1 nM) [%] | cell viability ([12]; 10 nM) [%] | cell viability ([12]; 100 nM) [%] | cell viability ([12]; 1000 nM) [%] | cell viability ([12]; 10000 nM) [%] | cell viability ([13]; 1 nM) [%] | cell viability ([13]; 10 nM) [%] | cell viability ([13]; 100 nM) [%] | cell viability ([13]; 1000 nM) [%] | cell viability ([13]; 10000 nM) [%] | cell viability ([14]; 1 nM) [%] | cell viability ([14]; 10 nM) [%] | cell viability ([14]; 100 nM) [%] | cell viability ([14]; 1000 nM) [%] | cell viability ([14]; 10000 nM) [%] | cell viability ([15]; 1 nM) [%] | cell viability ([15]; 10 nM) [%] | cell viability ([15]; 100 nM) [%] | cell viability ([15]; 1000 nM) [%] | cell viability ([15]; 10000 nM) [%]
CN([C@@H](Cc1ccc(OS(=O)(=O)c2cccc3cnccc23)cc1)C(=O)N1CCN(c2ccccc2)CC1)S(=O)(=O)c1cccc2cnccc12 [KN-62] | 0 | 0 | 0 | 0 | 0 | > 10 | > 10 | > 10 | > 10 | > 10 | 104 | 96.6 | 98.9 | 96.3 | 94.8 | 123 | 110 | 105 | 101 | 95.7 | 105 | 95.8 | 98 | 93.9 | 91.1 | 101 | 100 | 99.9 | 95.4 | 92.3 | 93.4 | 119 | 112 | 89.6 | 101
O=C(NCCCN1CCCCCC1)C(c1ccccc1)C1CCCCC1 (stereo not given) | 0 | 1 | 0 | 0 | 0 | > 10 | > 10 | > 10 | > 10 | > 10 | 95.8 | 96.1 | 96.5 | 99.6 | 94.9 | 107 | 107 | 100 | 89 | 84.7 | 111 | 94.1 | 102 | 104 | 98.8 | 104 | 101 | 101 | 106 | 95.7 | 101 | 101 | 105 | 107 | 95
